Reference: US20090264384A1, “INDOLE, BENZIMIDAZOLE, AND BENZOLACTAM BORONIC ACID COMPOUNDS, ANALOGS THEREOF AND METHODS OF USE THEREOF” (Nuada, Inc., priority 2004, published 2009)

Legend:
[1] = target: T1, CCKA(h) (CCK1) (Homo sapiens, UniProt P32238); assay: CCKA(h) (CCK1) binding assay; details: read-out: % Inhibition of Control Specific Binding
T1 construct: expressed in transfected cells; host or cells: CHO cells

[2] = target: T2, H2(h) (Homo sapiens, UniProt P25021); assay: H2(h) binding assay; details: read-out: % Inhibition of Control Specific Binding
T2 construct: expressed in transfected cells; host or cells: CHO cells

[3] = test system: H3; assay: H3 binding assay; parameters: species or system rat; details: 1.0E−05 M
[4] = test system: Y (non-selective); assay: Y (non-selective) binding assay; parameters: species or system rat; details: 1.0E−05 M
[5] = test system: Opiate (non-selective); assay: Opiate (non-selective) binding assay; parameters: species or system rat; details: 1.0E−05 M
[6] = target: T3, ORL1(h) (NOP) (Homo sapiens, UniProt P41146); assay: ORL1(h) (NOP) binding assay; details: 1.0E−05 M; read-out: % Inhibition of Control Specific Binding
T3 construct: expressed in transfected cells; host or cells: HEK-293 cells

[7] = test system: 5-HT (non-selective); assay: 5-HT (non-selective) binding assay; parameters: species or system rat; details: 1.0E−05 M
[8] = test system: TRH; assay: TRH binding assay; parameters: species or system rat; details: 1.0E−05 M
[9] = test system: Phosphodiesterase 4(h); assay: Phosphodiesterase 4(h) enzyme assay; type: biochemical, human; details: 1.0E−05 M
[10] = target: T4, Phosphodiesterase 5(h) (Homo sapiens, UniProt O76074); assay: Phosphodiesterase 5(h) enzyme assay; type: biochemical; details: 1.0E−05 M
T4 construct: human platelets; from tissue; host or cells: human platelets

[11] = target: T5, MAO-B(h) (Homo sapiens, UniProt P27338); type: biochemical; details: 1.0E−05 M
T5 construct: human platelets; from tissue; host or cells: human platelets

[12] = target: T6, Tyrosine hydroxylase (Rattus norvegicus, UniProt P04177); assay: Tyrosine hydroxylase enzyme assay; type: biochemical; details: 1.0E−05 M
T6 construct: rat striatum; from tissue; host or cells: rat striatum

[13] = target: HERG channel (Homo sapiens, UniProt Q12809); assay: ADME-Tox: QT Prolongation, HERG (patch-clamp)
[14] = target: hERG (Homo sapiens, UniProt Q12809); assay: ADME-Tox: QT Prolongation, HERG (patch-clamp); details: human, HEK-293 cells stably expressing HERG
[15] = test system: chronic colitis provoked by trinitrobenzene sulphonic acid (TNBS); assay: Rat model of chronic colitis provoked by TNBS over 14 days, treatment from Day 1; type: in vivo
Source text: In the chronic model of colitis, assessment of the colonic inflammation is made 14 days or longer, after the intracolonic challenge with TNBS (Boughton-Smith et al, 1988a, 1988b; Wallace et al, 1989; Rachmilewitz et al, 1989; Wallace and Keenan, 1990; Ameho et al, 1987; Sans et al, 1999; Sun et al, 2001; Maric et al, 2003; Moreels et al, 2004; Gonzalez et al, 2004). This model allows treatment with experimental agents to commence following the establishment of the colonic injury, typically 24 hours after the TNBS challenge (Galvez et al, 2000, Villegas, 2003, Gonzalez et al, 2004). The model should therefore identify the ability of the experimental compounds to accelerate the diminution of the inflammatory response and to promote healing of the colonic lesions. This model thus has relevance additional to the acute model, as the clinical correlate is the therapeutic intervention in patients with existing IBD not in remission or with flare-up, to reduce the crisis. This contrasts with the acute TNBS model where the compounds are administered one or two days prior to challenge, the clinical correlate being the use of prophylactic therapy to prevent flare-up and maintain remission in IBD patients.
In this current study, the low intracolonic challenge concentration of TNBS used in the acute studies was also used for the chronic study over a 14 day period. This concentration and timing was based on the findings from pilot studies where a range of concentrations of TNBS and treatment conditions were evaluated over a 14 day period. […].
The methods and protocol used were substantially similar to those in Example 39-40, with some differences described below.
TNBS Challenge. Male Wistar rats (average body weight, 210 g) were randomised into groups before commencement of the study. In all groups, including the non-challenged and non-treated absolute control group, food was withdrawn for 12 h before TNBS administration (i.e. overnight on Day −1), but the rats were allowed free access to drinking water.
On the morning of the day of challenge (Day 0, between 9.00 and 1 1.00 a.m.), the rats were transiently anaesthetised with ether and the TNBS solution (10 mg in 0.25 ml of 50% ethanol) was instilled approximately 6-8 cm into the colon using a soft plastic catheter inserted in the rat rectum. The rats were allowed to recover with free access to food and drinking water. At the end of the experiment, on the morning of Day 14, between 9.00 and 11.00), the colon was dissected, and the distal 8 cm photographed and immediately processed or stored appropriately for subsequent analyses.
The following primary parameters were measured in the study: macroscopic scoring of distal 8 cm of colon; myeloperoxidase levels in segments of distal 8 cm of colon; TNF-α levels in segments of distal 8 cm of colon.
In addition, the weight of the standard colonic segment was assessed as an indirect and non-specific marker of oedema. The body weight of the animals was also determined each evening of the study, starting on Day-1, and also on the morning of Day 14. The data is shown graphically as the % change from the weight on Day-1, prior to challenge.
Treatments. The TNBS challenged groups for study were: (a) Vehicle control 0.5% carboxy methyl cellulose (CMC) p.o., twice daily from Day; (b) CCI-7506 25 mg/kg, p.o., twice daily from Day 1 (50 mg/kg/day total); (c) CCI-7506 50 mg/kg, p.o., twice daily from Day 1 (100 mg/kg/day total); (d) CCI-7507 12.5 mg/kg, p.o., twice daily from Day 1 (25 mg/kg/day total); (e) CCI-7507 25 mg/kg, p.o., twice daily from Day 1(50 mg/kg/day total); […]; (g) Infliximab 3 mg/kg, single slow i.v. injection, on Day 1 and Day7.
The experimental compounds that were administered orally were given twice a day from Day 1, i.e. 24 h following TNBS administration, for the remainder of the 14 day experimental period. Infliximab was administered by slow i.v. injection of Day 1 and on Day 7. […]

[16] = 50 mg/kg/day p.o. from Day 1, Day 14, vs CMC group

HERG channel, sequence (Q12809 whole entry): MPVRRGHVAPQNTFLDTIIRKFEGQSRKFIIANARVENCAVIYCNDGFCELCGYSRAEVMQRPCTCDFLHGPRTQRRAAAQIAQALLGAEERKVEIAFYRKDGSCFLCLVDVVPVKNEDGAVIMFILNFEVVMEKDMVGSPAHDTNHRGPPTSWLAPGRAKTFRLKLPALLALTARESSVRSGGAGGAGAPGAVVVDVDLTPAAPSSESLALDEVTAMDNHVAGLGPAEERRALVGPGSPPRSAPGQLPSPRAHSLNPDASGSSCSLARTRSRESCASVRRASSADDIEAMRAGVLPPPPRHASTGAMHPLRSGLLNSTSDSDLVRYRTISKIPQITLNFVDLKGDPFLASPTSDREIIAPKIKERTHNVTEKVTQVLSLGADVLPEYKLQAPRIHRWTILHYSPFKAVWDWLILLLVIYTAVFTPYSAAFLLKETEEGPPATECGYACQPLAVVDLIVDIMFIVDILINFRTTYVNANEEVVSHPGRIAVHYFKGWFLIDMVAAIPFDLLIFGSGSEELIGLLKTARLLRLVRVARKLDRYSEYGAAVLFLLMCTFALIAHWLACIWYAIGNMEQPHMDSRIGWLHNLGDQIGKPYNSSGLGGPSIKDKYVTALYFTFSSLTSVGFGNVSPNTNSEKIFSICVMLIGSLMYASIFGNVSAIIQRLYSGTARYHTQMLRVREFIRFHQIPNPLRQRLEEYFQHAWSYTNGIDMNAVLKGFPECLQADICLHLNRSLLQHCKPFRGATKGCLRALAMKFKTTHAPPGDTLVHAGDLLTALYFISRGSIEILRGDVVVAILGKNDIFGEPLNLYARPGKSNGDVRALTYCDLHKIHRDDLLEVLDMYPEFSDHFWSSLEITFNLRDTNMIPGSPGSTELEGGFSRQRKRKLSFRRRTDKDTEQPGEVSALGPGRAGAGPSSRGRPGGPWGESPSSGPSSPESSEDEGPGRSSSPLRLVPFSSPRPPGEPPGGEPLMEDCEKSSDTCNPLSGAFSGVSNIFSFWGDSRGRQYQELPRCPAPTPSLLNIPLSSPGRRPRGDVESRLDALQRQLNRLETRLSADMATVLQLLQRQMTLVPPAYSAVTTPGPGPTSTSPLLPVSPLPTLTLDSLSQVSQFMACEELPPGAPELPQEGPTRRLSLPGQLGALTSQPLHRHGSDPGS
T6 sequence (P04177 whole entry): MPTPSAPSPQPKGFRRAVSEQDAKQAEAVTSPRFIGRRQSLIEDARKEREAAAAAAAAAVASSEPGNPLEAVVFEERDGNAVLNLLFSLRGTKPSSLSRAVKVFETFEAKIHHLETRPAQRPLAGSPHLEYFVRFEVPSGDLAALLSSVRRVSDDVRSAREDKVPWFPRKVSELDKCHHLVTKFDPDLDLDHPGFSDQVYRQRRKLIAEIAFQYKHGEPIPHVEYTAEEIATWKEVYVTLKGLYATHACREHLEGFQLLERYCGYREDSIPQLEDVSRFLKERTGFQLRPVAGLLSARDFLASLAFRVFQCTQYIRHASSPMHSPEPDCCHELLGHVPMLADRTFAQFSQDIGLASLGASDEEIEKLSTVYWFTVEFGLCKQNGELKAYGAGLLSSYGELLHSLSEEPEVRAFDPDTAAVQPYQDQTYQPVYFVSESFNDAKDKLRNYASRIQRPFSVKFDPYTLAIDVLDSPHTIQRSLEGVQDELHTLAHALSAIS
T1 sequence (P32238 whole entry): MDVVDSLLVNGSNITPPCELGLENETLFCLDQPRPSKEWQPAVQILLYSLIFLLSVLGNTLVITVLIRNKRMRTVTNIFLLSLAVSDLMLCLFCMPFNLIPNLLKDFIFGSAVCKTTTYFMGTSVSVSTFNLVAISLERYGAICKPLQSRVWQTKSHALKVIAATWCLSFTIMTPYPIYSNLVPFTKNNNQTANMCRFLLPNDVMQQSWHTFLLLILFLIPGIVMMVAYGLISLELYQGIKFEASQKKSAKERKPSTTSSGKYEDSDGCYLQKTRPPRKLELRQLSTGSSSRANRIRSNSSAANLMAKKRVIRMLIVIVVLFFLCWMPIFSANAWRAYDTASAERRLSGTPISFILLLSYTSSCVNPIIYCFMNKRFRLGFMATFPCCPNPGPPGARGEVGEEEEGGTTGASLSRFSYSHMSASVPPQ
T5 sequence (P27338 whole entry): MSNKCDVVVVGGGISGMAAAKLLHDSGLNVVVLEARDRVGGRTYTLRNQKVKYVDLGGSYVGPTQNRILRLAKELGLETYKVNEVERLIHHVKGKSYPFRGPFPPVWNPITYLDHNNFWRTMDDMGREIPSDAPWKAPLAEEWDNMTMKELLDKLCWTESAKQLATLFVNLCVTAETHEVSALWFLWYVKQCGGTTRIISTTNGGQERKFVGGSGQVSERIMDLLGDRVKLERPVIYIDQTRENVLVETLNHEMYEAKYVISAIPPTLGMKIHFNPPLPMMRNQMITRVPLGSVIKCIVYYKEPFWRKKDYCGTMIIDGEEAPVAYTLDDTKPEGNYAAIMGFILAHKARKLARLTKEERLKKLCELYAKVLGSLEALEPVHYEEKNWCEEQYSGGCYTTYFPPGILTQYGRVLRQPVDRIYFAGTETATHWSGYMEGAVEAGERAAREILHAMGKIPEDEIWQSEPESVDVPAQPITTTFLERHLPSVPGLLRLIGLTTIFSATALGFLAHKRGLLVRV
hERG, sequence (Q12809 whole entry): as the sequence (Q12809 whole entry) above
T2 sequence (P25021 whole entry): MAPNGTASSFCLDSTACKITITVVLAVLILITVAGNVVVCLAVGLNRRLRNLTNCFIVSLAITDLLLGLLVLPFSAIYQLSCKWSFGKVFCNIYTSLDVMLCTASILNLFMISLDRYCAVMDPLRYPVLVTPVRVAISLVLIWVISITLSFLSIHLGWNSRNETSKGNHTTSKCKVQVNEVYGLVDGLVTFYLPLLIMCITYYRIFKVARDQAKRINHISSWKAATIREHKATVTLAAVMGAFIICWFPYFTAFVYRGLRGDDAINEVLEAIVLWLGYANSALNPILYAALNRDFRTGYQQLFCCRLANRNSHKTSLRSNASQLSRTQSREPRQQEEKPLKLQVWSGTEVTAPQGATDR
T3 sequence (P41146 whole entry): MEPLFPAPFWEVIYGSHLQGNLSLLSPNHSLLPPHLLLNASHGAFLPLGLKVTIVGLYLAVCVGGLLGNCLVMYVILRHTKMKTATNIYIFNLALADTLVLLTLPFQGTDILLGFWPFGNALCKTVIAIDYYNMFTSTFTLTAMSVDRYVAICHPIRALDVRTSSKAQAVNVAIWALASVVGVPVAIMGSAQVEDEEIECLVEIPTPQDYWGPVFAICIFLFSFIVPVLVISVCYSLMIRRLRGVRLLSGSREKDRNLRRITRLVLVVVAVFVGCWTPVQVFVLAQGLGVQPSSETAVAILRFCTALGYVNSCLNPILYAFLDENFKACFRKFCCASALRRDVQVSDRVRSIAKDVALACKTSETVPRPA

N#Cc1ccc2c(ccn2CCCCCB(O)O)c1 [Example 20, 5-(5-cyano-1H-indol-1-yl)pentylboronic acid]
inhibition at 10 µM [1]: 7%
inhibition at 10 µM [2]: 15%
% Inhibition of Control Specific Binding [3]: 0%
% Inhibition of Control Specific Binding [4]: 14%
% Inhibition of Control Specific Binding [5]: 20%
inhibition at 10 µM [6]: 0%
% Inhibition of Control Specific Binding [7]: −1%
% Inhibition of Control Specific Binding [8]: −17%
% Inhibition of Control Values [9]: 91%
% Inhibition of Control Values [10]: 94%
% Inhibition of Control Values [11]: −8%
% Inhibition of Control Values [12]: 4%
Potency Ranking ([13]; HERG-channel blocker ranking, from 1 μM test (Table 17)): Moderate (Moderate, 1 μM<IC50<10 μM)
HERG-channel blocker potency class ([13]; general potency ranking system (Roche et al.)): moderate
inhibition at 1 µM [14]: 31.1%

O=C(O)c1cc(/N=N/c2ccc(S(=O)(=O)Nc3ccccn3)cc2)ccc1O [sulfasalazine, reference compound]
macroscopic Damage Score ([15]; 50 mg/kg/day p.o. from Day 1, Day 14): reduced the damage score
reduction in colon weight [15, 16]: significant (P<0.05) reduction in colon weight
reduction in colonic MPO activity [15, 16]: significantly (P<0.001) reduced the elevated colonic levels of MPO
reduction in colonic TNF-α levels [15, 16]: significantly reduced the elevated colonic levels of TNF-α
reduction in colonic lesion area (% of the total area measured) [15, 16]: significantly (P<0.001) reduced the extent of macroscopic injury
attenuation of TNBS-induced fall in body weight (% change of body weight at Day −1) ([15]; 50 mg/kg/day p.o. in divided doses from Day 1, over 14 days, vs CMC group): reached statistical significance compared with the CMC challenged group on at Day 2, 3, 6 and 7
